According to US9351955B2, “Compounds and pharmaceutical compositions thereof for the treatment of cystic fibrosis” (Galapagos NV, priority 2013, dated 2016):
Several values for one entry are separate records, joined by “and”; a condition that tells them apart may be missing. Identical values can stand only once. Like-named read-outs stand apart in the source and are kept apart here.

Experiments:
Assay type in all cases: cell-based
CFTR G551D mutant = target: T1, CFTR G551D mutant (Homo sapiens, UniProt P13569, G551D); test: YFP-halide influx assay for the CFTR-G551D mutation (HEK293 cells); settings: read-out: EC50 measured by YFP-halide influx assay for the CFTR-G551D
T1 construct: expressed in transfected cells; host or cells: HEK293 (reverse transfection with plasmids)
How it was run: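 HEK293 cells reverse-transfected with CFTR G551D and halide-sensitive YFP, expressed 24 h at 37 °C. Iodide-induced fluorescence quench recorded for 7 s after I^− injection; response as 1−F/F0, EC50 from concentration plot.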

CFTR ΔF508 mutant [1] = target: T2, CFTR ΔF508 mutant (Homo sapiens, UniProt P13569, DEL508-508); test: YFP-halide influx assay for the CFTR-ΔF508 mutation (384 well, CFBE41o- cells, FDSS/μCell); settings: forskolin 10.67 μM, fluorescence after 36 seconds, read-out: EC50 measured by YFP-halide influx assay for the CFTR-ΔF508
T2 construct: expressed in transfected cells; host or cells: CFBE41o- (adenoviral transduction)
How it was run: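 CFBE41o- cells were adenovirally transduced with ΔF508 CFTR and the YFP H148Q/I152L reporter. Cells were then held 24 h at 27 °C or treated 24 h at 37 °C with a CFTR modulator. Iodide-induced quench was recorded for 2 min, and EC50 was derived from 1−F/F0 at 36 s against compound concentration.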

CFTR ΔF508 mutant [2] = target: T2, CFTR ΔF508 mutant; test: YFP-halide influx assay for the CFTR-ΔF508 mutation (96 well, CFBE41o- cells); settings: read-out: EC50 measured by YFP-halide influx assay for the CFTR-ΔF508
Text: 6.1. YFP-Halide Influx Assay for the CFTR-ΔF508 Mutation
The YFP halide influx assay measures the functionality of the cystic fibrosis Transmembrane Conductance regulator (CFTR) channels in the cystic fibrosis bronchial epithelium cell line CFBE41o-. The assay is used to evaluate the capacity of compounds to increase the open probability of existing CFTR channels in the membrane. It makes use of the observation that the yellow fluorescent protein (YFP) variant YFP H148Q, I152L has its fluorescence substantially quenched by halide ions like Cl^− and I^−. (Galietta et al., 2001; Nagai et al., 2002)
For this purpose, CFBE410-cells are seeded in 96 well plates (6000 CFBE cells/well). One day after seeding, the CFBE cells are transduced with adenoviral vectors that direct the expression of the CFTR ΔF508 mutant and of the YFP reporter. Cells are incubated at 27° C., 5% CO2 for 24 hours so as to allow for the proper folding and migration to the membrane of the CFTR channel or treated with a CFTR modulator during 24 h at 37° C.
The […] quenching of fluorescence is recorded immediately after injection of I^− for 7 seconds. The capacity of a compound to increase the channel opening is directly correlated with the decrease in fluorescence, and is expressed as (1-(fluorescence after 7 seconds (F)/fluorescence before injection (F0))) and an EC50 can be derived from a (1−F/F0) vs compound concentration plot.

CFTR ΔF508 = target: T3, CFTR ΔF508 (Homo sapiens, UniProt P13569, DEL508-508); test: TECC assay, primary bronchial epithelial cells from CF patients homozygous for CFTR ΔF508; settings: for ΔIsc / Current increase: TECC assay; for Current increase: compound at 50 nM, difference between ΔIsc with compound and ΔIsc DMSO (baseline); for activity on the CFTR protein in TECC assay (ΔISC vs DMSO baseline): at 3 μM, or 50 nM, or 50/100/200 nM
T3 construct: host or cells: primary bronchial epithelial cells from CF patients homozygous for ΔF508, pre-treated with VX809
Description: 7.2.1. Primary Bronchial Epithelial Cells Protocol
The TECC (Tranepithelial Clamp Circuit, EP-design) assay measures the functionality of the cystic fibrosis Transmembrane Conductance regulator (CFTR) by measuring the short circuit current (ISC) generated over the basolateral and apical membrane of lung epithelial cells. In TECC the transepithelial potential PD and transepithelial resistance (Rt) are measured in an open circuit and transformed to ISC using Ohm's law. 24 wells can be measured simultaneously allowing a higher throughput compared to Ussing chambers.
For this purpose, bronchial epithelial cells isolated from CF patients homozygous for the CFTR ΔF508 mutation (hAEC-CF, Epithelix) are plated on type IV collagen-coated Transwell supports (Costar). Human airway epithelia are generated by provision of an air-liquid interface for 21 days to form well-differentiated polarized cultures that resemble in vivo pseudo-stratified ciliated epithelium (Fulcher et al., 2005). In the case of the homozygous ΔF508 CFTR samples, the differentiated cells are treated with 3 μM VX809 (2626 South Loop West, Suite 225, Houston, Tex. 77054 USA, Cat n#51565) to allow sufficient expression of properly folded CFTR protein on the membrane (48 hours basolateral treatment and 24 hours apical treatment), prior to electrophysiological recordings. […] G551D/ΔF508, differentiated cells are used as such for the recordings.
Information on the compounds can be retrieved on the homozygous ΔF508 CFTR samples looking at increased CFTR activity when compounds are added in an acute mode or in a chronic mode. On G551D/ΔF508 CFTR heterozygous samples compounds are added in an acute mode to the differentiated cells.
For the acute mode, for electrophysiological recording, the human airway epithelia are mounted in the TECC heating plate for electrophysiological measurement and kept at 37° C. The epithelia are bathed in a NaCl-Ringer solution (120 mM NaCl, 25 mM NaHCO3, 1.2 mM CaCl2, 1.2 mM MgCl2, 0.8 mM KH2PO4, 0.8 mM K2HPO4, pH 7.4, 5 mM glucose) on both the basolateral and apical sides. Apical amiloride is used to inhibit the endogenous ENaC currents while forkolin is applied on both apical and basolateral side to stimulate CFTR. After forskolin triggering, compounds are added on both sides to test their potential for increasing CFTR gating. Measurements are done during a 20 minute timeframe with recordings every 2 minutes. The increase in ISC is used as a measure for the increased CFTR activity, EC50 values can be generated by measuring impact of different concentrations of compound on ISC on primary cells, for this purpose each transwell is treated with a different compound concentration. Inh-172, an inhibitor specific for CFTR, is used to test the specificity of the tested compounds.
For the chronic mode, the differentiated cells are treated with 3 μM VX809 (2626 South Loop West, Suite 225, Houston, Tex. 77054 USA, Cat n#51565) and potentiator compounds at different concentrations (48 hours basolateral treatment and 24 hours apical treatment), prior to electrophysiological recordings. For electrophysiological recording, the human airway epithelia are mounted in the TECC heating plate for electrophysiological measurement and kept at 37° C. […]

[3] = HEK293 cells expressing CFTR G551D and YFP reporter, forskolin 10.67 μM
[4] = compounds of the invention, 96 well, forskolin 10.67 μM

T2 sequence (P13569 with tags, fused parts or gaps DEL508-508): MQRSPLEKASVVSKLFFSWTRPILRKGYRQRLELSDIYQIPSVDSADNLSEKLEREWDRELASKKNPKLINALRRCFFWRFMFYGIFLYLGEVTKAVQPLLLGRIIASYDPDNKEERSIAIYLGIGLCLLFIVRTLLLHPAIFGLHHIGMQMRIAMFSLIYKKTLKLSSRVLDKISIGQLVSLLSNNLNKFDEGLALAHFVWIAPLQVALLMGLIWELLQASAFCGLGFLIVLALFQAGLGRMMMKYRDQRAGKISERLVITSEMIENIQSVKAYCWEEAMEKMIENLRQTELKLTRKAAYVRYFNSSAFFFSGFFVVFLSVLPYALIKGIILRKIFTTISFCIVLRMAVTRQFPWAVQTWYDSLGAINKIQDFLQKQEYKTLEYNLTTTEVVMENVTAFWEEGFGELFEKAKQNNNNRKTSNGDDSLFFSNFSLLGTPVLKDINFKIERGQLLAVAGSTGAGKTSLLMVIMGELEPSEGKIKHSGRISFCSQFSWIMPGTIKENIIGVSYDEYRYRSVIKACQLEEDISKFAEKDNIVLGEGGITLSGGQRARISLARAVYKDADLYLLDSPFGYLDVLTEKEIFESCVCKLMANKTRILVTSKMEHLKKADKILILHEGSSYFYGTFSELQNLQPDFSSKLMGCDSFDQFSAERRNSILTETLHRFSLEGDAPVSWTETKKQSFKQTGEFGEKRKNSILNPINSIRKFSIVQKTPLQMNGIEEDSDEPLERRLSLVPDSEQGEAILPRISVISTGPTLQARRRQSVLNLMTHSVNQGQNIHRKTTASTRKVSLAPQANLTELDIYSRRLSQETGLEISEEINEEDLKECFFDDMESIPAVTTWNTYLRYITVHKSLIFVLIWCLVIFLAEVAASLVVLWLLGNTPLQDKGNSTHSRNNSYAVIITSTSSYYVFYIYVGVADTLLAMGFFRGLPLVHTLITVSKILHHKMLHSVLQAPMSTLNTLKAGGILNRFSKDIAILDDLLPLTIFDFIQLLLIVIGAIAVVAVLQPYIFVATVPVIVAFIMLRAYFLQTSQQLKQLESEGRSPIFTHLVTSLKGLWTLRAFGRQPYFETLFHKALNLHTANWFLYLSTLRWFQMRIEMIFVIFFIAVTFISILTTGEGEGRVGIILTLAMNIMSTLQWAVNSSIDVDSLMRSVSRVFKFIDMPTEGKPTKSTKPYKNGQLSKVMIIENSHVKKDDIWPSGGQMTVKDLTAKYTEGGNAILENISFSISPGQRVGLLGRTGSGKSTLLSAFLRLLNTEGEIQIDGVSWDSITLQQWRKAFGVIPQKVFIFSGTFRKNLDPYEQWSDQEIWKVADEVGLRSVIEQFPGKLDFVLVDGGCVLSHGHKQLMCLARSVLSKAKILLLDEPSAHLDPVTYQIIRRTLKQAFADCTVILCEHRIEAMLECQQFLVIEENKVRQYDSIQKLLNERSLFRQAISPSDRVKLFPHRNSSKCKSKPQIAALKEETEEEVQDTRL
T3 sequence (P13569 with tags, fused parts or gaps DEL508-508): as above
T1 sequence (P13569 whole entry G551D): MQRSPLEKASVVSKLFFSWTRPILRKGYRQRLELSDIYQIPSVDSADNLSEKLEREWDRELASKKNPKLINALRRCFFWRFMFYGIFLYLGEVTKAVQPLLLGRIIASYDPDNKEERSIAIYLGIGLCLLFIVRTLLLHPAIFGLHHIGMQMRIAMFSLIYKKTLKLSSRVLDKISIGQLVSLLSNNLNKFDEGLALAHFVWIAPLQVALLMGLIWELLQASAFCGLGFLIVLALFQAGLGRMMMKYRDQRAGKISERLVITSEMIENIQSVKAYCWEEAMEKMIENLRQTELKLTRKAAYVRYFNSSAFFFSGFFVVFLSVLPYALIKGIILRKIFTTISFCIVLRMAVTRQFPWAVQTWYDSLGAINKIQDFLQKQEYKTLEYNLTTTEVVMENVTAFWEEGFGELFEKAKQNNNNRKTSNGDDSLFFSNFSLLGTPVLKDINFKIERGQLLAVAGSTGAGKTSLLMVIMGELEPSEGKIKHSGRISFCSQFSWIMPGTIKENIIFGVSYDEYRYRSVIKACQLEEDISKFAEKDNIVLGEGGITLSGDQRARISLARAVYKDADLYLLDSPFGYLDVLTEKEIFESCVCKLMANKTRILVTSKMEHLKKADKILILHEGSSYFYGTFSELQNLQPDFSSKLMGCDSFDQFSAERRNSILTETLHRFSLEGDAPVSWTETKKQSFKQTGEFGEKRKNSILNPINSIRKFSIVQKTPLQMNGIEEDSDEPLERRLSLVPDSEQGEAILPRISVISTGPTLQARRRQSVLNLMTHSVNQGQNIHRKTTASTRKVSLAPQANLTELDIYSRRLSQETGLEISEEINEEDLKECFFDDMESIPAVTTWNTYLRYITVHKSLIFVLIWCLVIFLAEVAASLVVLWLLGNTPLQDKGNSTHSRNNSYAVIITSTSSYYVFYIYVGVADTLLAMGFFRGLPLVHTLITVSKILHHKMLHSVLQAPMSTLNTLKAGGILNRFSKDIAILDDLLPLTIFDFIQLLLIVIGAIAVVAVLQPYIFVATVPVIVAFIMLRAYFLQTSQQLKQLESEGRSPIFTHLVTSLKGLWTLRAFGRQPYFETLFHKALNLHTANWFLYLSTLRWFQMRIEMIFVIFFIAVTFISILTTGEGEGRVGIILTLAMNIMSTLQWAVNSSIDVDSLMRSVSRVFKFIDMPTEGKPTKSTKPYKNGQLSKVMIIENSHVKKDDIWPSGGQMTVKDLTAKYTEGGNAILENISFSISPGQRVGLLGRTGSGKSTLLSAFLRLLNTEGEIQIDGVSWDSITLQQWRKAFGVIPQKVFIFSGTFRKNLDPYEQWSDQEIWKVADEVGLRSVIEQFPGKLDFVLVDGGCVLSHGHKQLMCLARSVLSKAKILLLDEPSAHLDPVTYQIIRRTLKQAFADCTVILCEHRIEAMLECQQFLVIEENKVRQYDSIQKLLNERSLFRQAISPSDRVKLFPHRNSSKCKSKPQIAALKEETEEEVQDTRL

| EC50 (CFTR G551D mutant; [3]) | EC50 (CFTR ΔF508 mutant [1]) | EC50 (CFTR ΔF508 mutant [2]; [4]) | SMILES | other results |
| --- | --- | --- | --- | --- |
| 3330 nM | 467 nM | 829 nM | CC1(C)Cc2c(sc(NC(=O)c3nnc[nH]3)c2C(N)=O)C(C)(C)O1 [Compound 18, N-(3-carbamoyl-5,5,7,7-tetramethyl-5,7-dihydro-4H-thieno[2,3-c]pyran-2-yl)-1H-1,2,4-triazole-3-carboxamide] | – |
| 1670 nM | 189 nM | 440 nM | CC1(C)Cc2c(sc(NC(=O)c3ccccc3-c3ncc[nH]3)c2C(N)=O)C(C)(C)O1 [Compound 27, 2-(2-(1H-imidazol-2-yl)benzamido)-5,5,7,7-tetramethyl-5,7-dihydro-4H-thieno[2,3-c]pyran-3-carboxamide] | – |
| – | – | – | NC(=O)c1c(NC(=O)c2ccccc2Cl)sc2c1CCCC2 [B, 2-(2-chlorobenzamido)-4,5,6,7-tetrahydrobenzo[b]thiophene-3-carboxamide, reference compound] | ΔIsc (CFTR ΔF508; compound at 50 nM (Table XV)): 0.1807 μA/cm^2; ΔIsc (CFTR ΔF508; compound at 50 nM (Table XVI)): 0.1807 μA/cm^2; Current increase (CFTR ΔF508): 0.5055 μA/cm^2; ΔIsc (CFTR ΔF508; compound at 100 nM (Table XVI)): 0.4762 μA/cm^2; ΔIsc (CFTR ΔF508; compound at 200 nM (Table XVI)): 0.8022 μA/cm^2; activity on the CFTR protein in TECC assay (ΔISC vs DMSO baseline) (CFTR ΔF508): no such activity; EC50 (CFTR ΔF508 mutant [2]; comparative compounds): < 370 nM |
| 162 nM | 6.46 nM | 4.4 nM | CC1(C)Cc2c(sc(NC(=O)c3ccccc3O)c2C(N)=O)C(C)(C)O1 [Compound 3, 2-(2-hydroxybenzamido)-5,5,7,7-tetramethyl-5,7-dihydro-4H-thieno[2,3-c]pyran-3-carboxamide] | – |
| 6660 nM | 101 nM | 141 nM | CC1(C)Cc2c(sc(NC(=O)C3CCNC3=O)c2C(N)=O)C(C)(C)O1 (stereo not drawn) [Compound 30, N-(3-carbamoyl-5,5,7,7-tetramethyl-5,7-dihydro-4H-thieno[2,3-c]pyran-2-yl)-2-oxopyrrolidine-3-carboxamide] | – |
| 3330 nM | 197 nM | 952 nM | COC(=O)C1(C(=O)Nc2sc3c(c2C(N)=O)CC(C)(C)OC3(C)C)CC1 [Compound 12, methyl 1-(3-carbamoyl-5,5,7,7-tetramethyl-5,7-dihydro-4H-thieno[2,3-c]pyran-2-ylcarbamoyl)cyclopropanecarboxylate] | – |
| 764 nM | 47.8 nM | 63.4 nM | CC1(C)Cc2c(sc(NC(=O)c3ccccc3C(F)(F)F)c2C(N)=O)C(C)(C)O1 [Compound 5, 5,5,7,7-tetramethyl-2-(2-(trifluoromethyl)benzamido)-5,7-dihydro-4H-thieno[2,3-c]pyran-3-carboxamide] | – |
| 590 nM | 12.6 nM | 27.2 nM | Cc1cc(C(=O)Nc2sc3c(c2C(N)=O)CC(C)(C)OC3(C)C)[nH]n1 [Compound 11, N-(3-carbamoyl-5,5,7,7-tetramethyl-5,7-dihydro-4H-thieno[2,3-c]pyran-2-yl)-5-methyl-1H-pyrazole-3-carboxamide] | – |
| – | – | – | CN1CCc2c(sc(NC(=O)c3ccccc3O)c2C(N)=O)C1 [A, 2-(2-hydroxybenzamido)-6-methyl-4,5,6,7-tetrahydrothieno[2,3-c]pyridine-3-carboxamide, reference compound] | EC50 (CFTR G551D mutant; comparative compounds, HEK293 cells): > 10000 nM; ΔIsc (CFTR ΔF508; compound at 50 nM (Table XV)): −0.3248 μA/cm^2; ΔIsc (CFTR ΔF508; compound at 50 nM (Table XVI)): −0.3807 μA/cm^2; Current increase (CFTR ΔF508): −0.0559 μA/cm^2; ΔIsc (CFTR ΔF508; compound at 100 nM (Table XVI)): −0.5401 μA/cm^2; ΔIsc (CFTR ΔF508; compound at 200 nM (Table XVI)): −0.6598 μA/cm^2; activity on the CFTR protein in TECC assay (ΔISC vs DMSO baseline) (CFTR ΔF508): no such activity; EC50 (CFTR ΔF508 mutant [2]; comparative compounds): > 10000 nM |
| – | 16.2 nM | 75.8 nM | CC1(C)Cc2c(sc(NC(=O)C(C)(C)O)c2C(N)=O)C(C)(C)O1 [Compound 6, 2-(2-hydroxy-2-methylpropanamido)-5,5,7,7-tetramethyl-5,7-dihydro-4H-thieno[2,3-c]pyran-3-carboxamide] | EC50 (CFTR ΔF508; primary bronchial epithelial cells, CFTR ΔF508, several values in a cell = repeat determinations): 165 nM and 60.9 nM |
| 854 nM | 39.6 nM | 23 nM | CC1(C)Cc2c(sc(NC(=O)c3n[nH]c4c3COCC4)c2C(N)=O)C(C)(C)O1 [Compound 32, N-(3-carbamoyl-5,5,7,7-tetramethyl-5,7-dihydro-4H-thieno[2,3-c]pyran-2-yl)-1,4,6,7-tetrahydropyrano[4,3-c]pyrazole-3-carboxamide] | – |
| 357 nM | 7.33 nM | 41.8 nM | CCc1n[nH]c(C(=O)Nc2sc3c(c2C(N)=O)CC(C)(C)OC3(C)C)c1C [Compound 19, N-(3-carbamoyl-5,5,7,7-tetramethyl-5,7-dihydro-4H-thieno[2,3-c]pyran-2-yl)-3-ethyl-4-methyl-1H-pyrazole-5-carboxamide] | – |
| 716 nM | 12.4 nM | 13 nM | CCc1[nH]nc(C(=O)Nc2sc3c(c2C(N)=O)CC(C)(C)OC3(C)C)c1Cl [Compound 36, N-(3-carbamoyl-5,5,7,7-tetramethyl-5,7-dihydro-4H-thieno[2,3-c]pyran-2-yl)-4-chloro-5-ethyl-1H-pyrazole-3-carboxamide] | – |
| 1270 nM | 190 nM | 102 nM | CC1(C)Cc2c(sc(NC(=O)c3cccnc3O)c2C(N)=O)C(C)(C)O1 [Compound 23, N-(3-carbamoyl-5,5,7,7-tetramethyl-5,7-dihydro-4H-thieno[2,3-c]pyran-2-yl)-2-oxo-1,2-dihydropyridine-3-carboxamide] | – |
